Like-named read-outs stand apart in the source and are kept apart here.
Experiments:
[1] = system: corticosterone-injured PC12 cells; assay: Protective effects on corticosterone-injured PC12 cells (MTT); type: cell-based, rat; conditions: 24 h after treatment; for PR (protection rate): 200 μM corticosterone
Method: PC12 cells were purchased from American Type Culture Collection and were maintained in DMEM medium supplemented with penicillin (100 unit/ml), streptomycin (100 μg/ml), 5% fetal bovine serum (FBS), and 10% horse serum at 37 °C in humidified atmosphere with 5% CO2. The detailed procedures were performed referring to the reported literatures. Briefly, PC12 cells of logarithmic growth phase were collected, re-suspended and then seeded at a density of 1 × 10^5 cells per well in 96-well plates and cultured in the DMEM medium with 5% horse serum, 10% FBSfor 24 h.
After incubation with compounds, 20 μl of 5 mg/ml MTT solution was added to each well and cultured at 37 °C for 2 h–4 h. Then, the culture medium was removed, and 150 μl dimethyl sulfoxide(DMSO) was added to each well for 15 min at room temperature. The absorbance of each well was measured at 570 nm using a microplate reader. The protective rates (PR) were calculated according to equation (1).

HEK293 cells = assay: Cytotoxicity on HEK293 cells (MTT); type: cell-based, human; conditions: Homo sapiens, HEK293, 100μM, after treatment; read-out: IR (inhibitory rate) HEK293
Method: (§1) Human normal hepatic L02 cells, human embryonic kidney cell line 293 cells (HEK293) and Rattus myoblast cell line H9C2 cells were respectively seeded in 96-well plates at a density of 4 × 10^3 cells per well and cultured in the 1640 or DMEM medium, with the supplement of 10% fetal bovine serum, penicillin (100 unit/ml), streptomycin (100 μg/ml) in a humidified incubator with 5% CO2 for 24 h. […] The cytotoxicities of the compounds were evaluated by MTT method.

L02 cells = assay: Cytotoxicity on L02 cells (MTT); type: cell-based, human; conditions: Homo sapiens, L02, 100μM, after treatment; read-out: IR (inhibitory rate) L02
Method: as §1

H9C2 cells = assay: Cytotoxicity on H9C2 cells (MTT); type: cell-based; conditions: Rattus norvegicus, 48 h
Method: Human normal hepatic L02 cells, human embryonic kidney cell line 293 cells (HEK293) and Rattus myoblast cell line H9C2 cells were respectively seeded in 96-well plates at a density of 4 × 10^3 cells per well and cultured in the 1640 or DMEM medium, with the supplement of 10% fetal bovine serum, penicillin (100 unit/ml), streptomycin (100 μg/ml) in a humidified incubator with 5% CO2 for 24 h. After adherence, L02, HEK293 and H9C2 cells were exposed to different compounds for another 48 h. The cytotoxicities of the compounds were evaluated by MTT method.

[2] = PAMPA-BBB permeation assay; type: in vitro ADME; conditions: for Papp at 18 h, 100 μg/mL: Pe ± SD (n = 3), pH 7.4
Method: Parallel artificial membrane permeation assay (PAMPA) was performed according to the literature[44] with minor modification. The PVDF (Poly(vinylidene fluoride)) membrane of the donor plate was coated with PBL (Polar Brain Lipid, Avanti, USA) in dodecane (4 μL of 20 mg/mL PBL in dodecane) and the acceptor well was filled with 350 μL of PBS/EtOH (70/30, v/v, pH 7.4) buffer (VD). The tested compound was dissolved in DMSO and then diluted with PBS/EtOH (70/30, v/v, pH 7.4) buffer to reach the concentration of 100 μg/mL in the donor well.
200 μL of the donor solution was added to the donor wells (VA) and the donor filter plate was carefully put on the acceptor plate so that the coated membrane contacted both donor solution and acceptor buffer. Test compound diffused from the donor well through the lipid membrane (area = 0.28 cm^2) to the acceptor well. The concentration of the drug in both donor and the acceptor wells was assessed after 18 hours of incubation at room temperature in triplicate using Varioskan Flash Multimode Reader (Thermo Scientific) at the maximum absorption wavelength of tested compound. Concentration of the compound was calculated from the standard curve and expressed as the permeability (Pe) according to Equation (2):

SD rats = assay: Forced swim test; type: in vivo, rat; conditions: ig. 32 mg/kg/day, days 2–15
Method: The detailed procedures were performed according to our previous studies. Briefly, each SD rat was placed in a vertical Plexiglas cylinder (height 50 cm; diameter 20 cm) containing 18 cm height of water at 25 ± 2 °C and was forced to swim individually for 15 min on1st day. From 2nd day to 15th day, the rats were intragastrically administered compound 6a-1 or control drugs at dosage of 32 mg/kg/day. On the 2nd day and 15th day, 30 minutes after drug treatment, each rat was placed again into water and forced to swim for 6 min. The rat behavior was recorded by a video camera placed directly facing cylinders. The duration of immobility during the last 4 minutes was analyzed by Xeye Animal behavior analysis system (Xeye Aba V3.2). The rat was considered as immobile when its moving speed was less than 20 mm/s. The dosage of is 32 mg/kg every day. The water in the cylinder was changed each trial. After each exposure, animals were partially dried with a towel and returned to their home cages. All tests were performed in a quiet room.

[3] = system: corticosterone injured PC12 cells; assay: Intracellular GSH level; type: cell-based, rat; conditions: 200 μM corticosterone and 5 μM drug; vehicle-treated PC12 cells = 100%
Method: The GSH level was measured by reference of literatures’ methods[55][56] with appropriate revision. […] After being incubated on ice for 10 min, the lysate was centrifuged at 10 000 rpm for 10 min. […] The mixture was centrifuged at 3000 × g for 10 min at 4 °C, and then 200 μL of the resulting supernatant was mixed with 1 mL of phosphate buffer (100 mM, pH 8.0) and 50 μL of 5, 5-dithiobis-2-nitrobenzoic acid (DTNB).

[4] = system: corticosterone injured PC12 cells; assay: Intracellular ROS level (DCF-DA); type: cell-based, rat; conditions: 200 μM corticosterone and 5 μM drug; vehicle-treated PC12 cells = 100%
Method: In brief, PC12 cells were washed with D-Hanks after drug treatment. Then cells were incubated with 2′, 7′-dichloro-fluorescein diacetate (DCF-DA, 20 μM) for 30 min at 37 °C in darkness.

[5] = system: corticosterone injured PC12 cells; assay: Real-time PCR BDNF mRNA level; type: cell-based, rat; conditions: 200 µM corticosterone and 5 µM drug
[6] = system: corticosterone-injured PC12 cells; assay: Intracellular calcium ion concentration analysis (Fura-2 AM); type: cell-based, rat; conditions: 200 µM corticosterone and 5 µM drug
Method: The detailed procedures were performed according to the reported literatures. In brief, calcium ion concentration was measured by Fura-2 AM (Thermo Scientific). PC12 cells were treated with compound 6a-1 for 48 hours. Then cells were detached with 0.25% trypsin and centrifuged at 1000 r/min for 5 minutes. The supernatant was removed and the cells were stained with Fura-2 AM according to the manufacturer’s instructions. Fluorescence intensity of labeled cells was photographed for 25 random sights each group using Thermo Scientific Array Scan Infinity.

C57 mice = assay: Acute toxicity evaluation with H&E histology; type: in vivo, mouse
Method: Ten mice of each group were sacrificed on the 7th day, their heart, liver, spleen, lung and kidney were harvested and H&E histological staining was performed. Then the stained tissues were observed by two pathologists in a blinded manner.

5-HT2C receptor = biological target: T1, 5-HT2C receptor (Homo sapiens, UniProt P28335); assay: FLIPR assay for 5-HT2C antagonism; type: cell-based; conditions: for inhibition at 100 µM: read-out: Inhibition 5-HT2C
T1 sequence (P28335 33-458): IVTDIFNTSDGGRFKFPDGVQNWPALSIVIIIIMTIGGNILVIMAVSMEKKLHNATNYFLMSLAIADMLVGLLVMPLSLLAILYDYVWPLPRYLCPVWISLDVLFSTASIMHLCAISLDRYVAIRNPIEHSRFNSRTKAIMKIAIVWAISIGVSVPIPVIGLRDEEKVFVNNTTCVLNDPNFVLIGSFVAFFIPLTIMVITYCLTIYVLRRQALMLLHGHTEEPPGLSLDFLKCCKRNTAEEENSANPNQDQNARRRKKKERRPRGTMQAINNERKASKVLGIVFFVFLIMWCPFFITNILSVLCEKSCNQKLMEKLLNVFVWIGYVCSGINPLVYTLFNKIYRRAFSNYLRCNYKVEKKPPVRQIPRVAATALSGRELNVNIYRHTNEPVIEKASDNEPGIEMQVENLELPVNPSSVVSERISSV
Method: Seed cells at the density of 10 K cell/well, 37 °C, 5% CO2 incubate for 16–24 hours, then loading cells with 30 ul of Calcium 5 and 37 °C, 5% CO2 incubate for 1 hour. After transfer compound to compound plate with 30 ul Assay Buffer by Echo, add 15 ul/well of compound, incubate for 10 mins.

Row | Structure (SMILES) | PR (protection rate) ([1]; 5 μM) | PR (protection rate) ([1]; […]) | inhibition at 100 µM (HEK293 cells) | inhibition at 100 µM (L02 cells) | IC50 (H9C2 cells) | CNS(+/−) prediction of blood-brain barrier penetration [2] | Papp at 18 h, 100 μg/mL [2] | mean immobility time reduced compared to the model group (SD rats) | GSH level [3] | ROS level [4] | BDNF mRNA level increase compared with corticosterone-injured group [5] | fluorescence intensity of free intracellular calcium ion [6] | heart histology (H&E) (C57 mice; 140 mg/kg/day, 7th day) | liver histology (H&E) (C57 mice; 140 mg/kg/day, 7th day) | spleen histology (H&E) (C57 mice; 140 mg/kg/day, 7th day) | other results
1 | COc1ccc2c(c1)C(CCNC(C)=O)=NCC2.O=C(O)C(=O)O [6a-1, N-(2-(7-Methoxy-3,4-dihydroisoquinolin-1-yl)ethyl) acetamide oxalate] | 42.1% | 37.1% | < 20% | < 20% | 455 µM | CNS+ | 16.7 ± 0.41 ×10⁻⁶ cm/s | 62.5% | 87.7% | 140.3% | 42.8% | much weaker fluorescence intensity than Fluoxetine and Agomelatine | cardiac myocytes were fragmented and arranged promiscuously | hepatic cords were distinctly clear | unchanged | kidney histology (H&E) (C57 mice; 140 mg/kg/day, 7th day): did not show any significant difference compared with normal; lung histology (H&E) (C57 mice; 140 mg/kg/day, 7th day): did not show any significant difference compared with normal; clinical signs of toxicity (C57 mice; intragastric 140 mg/kg/day, 7-day administration): No visible clinical signs of toxicity; IC50 (5-HT2C receptor; FLIPR calcium flux, read-out: IC50 5-HT2C antagonism): > 100 µM; inhibition at 100 µM (5-HT2C receptor): 5.2%
2 | COc1ccc2cccc(CCNC(C)=O)c2c1 [Agomelatine, reference compound] | 17.6% | 24.2% | 47.5% | 41.8% | 375 µM | CNS+ | 17.8 ± 0.37 ×10⁻⁶ cm/s | 8.4% | 93.4% | 125.0% | 37.2% | weaker fluorescence intensity than corticosterone-injured PC12 cells | no necrosis, hemorrhage or inflammatory exudates were observed | severely damaged | unchanged | PR (protection rate), Table S1 ([1]; 1.25µM): 28.1%; PR (protection rate) ([1]; 1.25 μM): 28.1%; inhibition at 100 µM (5-HT2C receptor; max tested concentration at 100μM): 66.6%

Source: PMC5048153 (Scientific Reports, 2016)
